Patent US20230346820A1, “METHODS AND COMPOSITIONS FOR THE TREATMENT OF SARS-COV-2” (priority 2020, published 2023)
Where two headings read alike, the source gives them in different places.

Key:
[1] = tested on: SARS-CoV-2; assay: Checkerboard synergy study with remdesivir (ZIP model, synergyfinder); format: cell-based
[2] = tested on: SARS-CoV-2; assay: microbe, parasite or virus in culture
[3] = tested on: SARS-CoV-2
[4] = in vitro; details: human
[5] = tested on: SARS-CoV-2; assay: microbe, parasite or virus in culture; details: Severe acute respiratory syndrome coronavirus 2, Calu-3, 48 h, read-out: Calu-3 CoV-2 EC50 [μM]
[6] = tested on: SARS-CoV-2; remark: listed apart in the source
[7] = in vitro; details: human; remark: listed apart in the source
Protocol: To assess cell viability, 2 μL of 50% Cell-Titer Glo (Promega No G7573) diluted in water was added to the cells and luminescence measured on an EnVision Plate Reader (Perkin Elmer).
Data analysis. […] Primary in vitro screen and the host cell cytotoxicity counter screen data were uploaded to Genedata Screener, Version 16.0.3-Standard. […] For the uninfected host cell cytotoxicity counter screens, 40 μM puromycin (Sigma) was used as the positive (inhibitory) control in HeLa-ACE2, HepG2 and HEK293T cells, and 30 μM puromycin (Sigma) was used as the positive (inhibitory) control for Calu-3 cells. For dose response experiments compounds were tested in technical triplicates on different assay plates and dose curves were fitted with the four parameter Hill Equation. Technical replicate data were analyzed using median condensing. Geometric means and geometric standard deviations are reported for compound activities (EC50s and CC50s) obtained in multiple independent biological experiments. […] Geometric means were calculated by computing the logarithm (base 10) of all values, calculating the mean of these logarithms, and taking the antilog of that mean. Geometric standard deviations were computed by taking the standard deviation of the log-transformed individual values and taking the antilog of that standard deviation. The geometric standard deviation is a unitless ratio and reported as ×÷ instead of +/−.

[8] = tested on: HeLa-ACE2 cells; assay: cells; format: cell-based, human; details: Homo sapiens, HeLa-ACE2, read-out: HeLa-ACE-2 EC50 [μM] (Geomeans, n ≥ 2)
[9] = Severe acute respiratory syndrome coronavirus 2, HeLa-ACE2, 24 h, read-out: CoV-2 EC50 [μM] (Geomeans, n ≥ 2)
[10] = Severe acute respiratory syndrome coronavirus 2, HeLa-ACE2, read-out: SARS CoV-2 EC50 (μM)
[11] = CC50 [μM] (Geomeans, n ≥ 2 except where indicated: *n = 1)
[12] = Severe acute respiratory syndrome coronavirus 2, HeLa-ACE2, read-out: HeLa-ACE2 CoV-2 EC50 [μM], Table 4, aggregated data, Geomean, n = 3
[13] = HeLa-ACE2 Uninfected Tox CC50 [μM], Table 4, aggregated data, Geomean, n = 3
[14] = Severe acute respiratory syndrome coronavirus 2, HeLa-ACE2, read-out: HeLa-ACE2 CoV-2 EC50 [μM]
[15] = HeLa-ACE2 Uninfected Tox CC50 [μM]

Row | Structure (SMILES) | EC50 [2, 9] | HeLa-ACE2 CC50/CoV-2 EC50 [3] | CC50 [4, 11] | EC50 [5] | Calu3 SI CC50/CoV-2 EC50 ([6]; Table 4) | EC50 [2, 12] | HeLa-ACE2 SI CC50/CoV-2 EC50 ([3]; Table 4) | CC50 [7] | CC50 [4, 13] | EC50 [2, 14] | further results
1 | CN1CCN(c2ccc(C(=O)NCc3cnc(C#N)nc3NCC(C)(C)C)cc2)CC1 [Dutacatib] | 2.69 µM | >13.43 | > 36.1 µM | – | – | – | – | – | – | – | Synergy score with remdesivir (δ) ([1]; Table 3): 2.955; EC50 [2, 10]: 2.69 µM; CC50 ([4]; Uninfected HeLa-ACE2 CC50 (μM)): > 36.1 µM
2 | CNC(=O)n1ccc2cc(Oc3ccnc(NC(=O)c4ccc(C5CCN(CCO)CC5)cc4)c3)c(OCCOC)cc21 [E-7090] | – | – | – | 0.753 µM | 19.88 | 2.65 µM | 8.01 | 15 µM | 21.2 µM | – | –
3 | C[C@@H]1C[C@@H]([C@H](O)CC2CC(=O)NC(=O)C2)C(=O)[C@@H](C)C1 [Cycloheximide] | – | – | – | 0.195 µM | 12.50 | – | 2.32 | – | – | 0.634 µM | CC50 at 48 h [7]: 2.44 µM; CC50 [4]: 1.47 µM
4 | Cn1c(C#N)ccc1-c1ccc2c(c1)C(C)(C)OC(=S)N2 [tanaproget] | – | – | – | 2.44 µM | 7.99 | 0.141 µM | 0.91 | 19.3 µM | 0.128 µM | – | –
5 | COc1ccc2c(c1)c(CC(=O)NO)c(C)n2C(=O)c1ccc(Cl)cc1 [oxametacin] | – | – | – | 3.56 µM | – | – | – | 17.7 µM | – | 9.14 µM | Calu3 SI CC50/CoV-2 EC50 [6]: 4.98; HeLa-ACE2 SI CC50/CoV-2 EC50 [3]: 0.64; CC50 [4, 15]: 5.87 µM
6 | CC(=O)O[C@H]1C[C@H](O[C@H]2[C@@H](O)C[C@H](O[C@H]3[C@@H](O)C[C@H](O[C@H]4CCC5(C)[C@H](CC[C@@H]6[C@@H]5CCC5(C)[C@@H](C7=CC(=O)OC7)[C@@H](O)CC65O)C4)O[C@@H]3C)O[C@@H]2C)O[C@H](C)[C@H]1O[C@@H]1O[C@H](CO)[C@@H](O)[C@H](O)[C@H]1O (stereo partly shown) [[…]] | – | – | – | 0.688 µM | 4.90 | 0.803 µM | 2.175 | 3.37 µM | 1.75 µM | – | –
7 | C[C@H]1O[C@@H](O[C@H]2[C@@H](O)C[C@@H](O[C@@H]3[C@@H](O)C[C@H](O[C@H]4CC[C@@]5(C)[C@H](CC[C@@H]6[C@@H]5C[C@@H](O)[C@]5(C)[C@@H](C7=CC(=O)OC7)CC[C@]65O)C4)O[C@@H]3C)O[C@@H]2C)C[C@H](O)[C@@H]1O (stereo in doubt) [Digoxin] | 0.166 µM | 0.72 | 0.12 µM | 0.17 µM | >29.80 | – | – | > 5.04 µM | – | 0.166 µM | HeLa-ACE2 SI CC50/CoV-2 EC50 [3]: 0.72; CC50 [4, 15]: 0.12 µM; EC50 [8]: 0.325 µM
8 | C=C(C)[C@]12C[C@@H](C)[C@@]34O[C@](Cc5ccccc5)(O[C@@H]1[C@@H]3C=C(COC(=O)Cc1ccc(O)c(OC)c1)C[C@]1(O)C(=O)C(C)=C[C@@H]41)O2 [Resiniferatoxin] | – | – | – | 0.903 µM | 19.13 | – | 5.53 | – | – | 1.3 µM | CC50 at 48 h [7]: 17.3 µM; CC50 [4]: 7.17 µM
9 | Sc1ncnc2nc[nH]c12 [Mercaptopurine] | – | – | – | 0.197 µM | 6.95 | 3.57 µM | 5.51 | 1.37 µM | 19.6 µM | – | –
10 | CCN(CC)CCCNc1ccnc2cc(Cl)ccc12 [AQ-13] | 0.8 µM | 32.34 | 25.9 µM | – | – | – | – | – | – | – | Synergy score with remdesivir (δ) ([1]; Table 3): −1.77; EC50 [2, 10]: 0.8 µM
11 | CO[C@H]1[C@@H](O)C[C@H](O[C@H]2[C@@H](O)C[C@H](O[C@H]3[C@@H](O)C[C@H](O[C@H]4CC[C@@]5(C)[C@H](CC[C@@H]6[C@@H]5C[C@@H](O)[C@]5(C)[C@@H](C7=CC(=O)OC7)CC[C@]65O)C4)O[C@@H]3C)O[C@@H]2C)O[C@@H]1C [Metildigoxin] | – | – | – | 0.399 µM | 6.22 | – | 0.56 | – | – | 0.284 µM | CC50 at 48 h [7]: 1.24 µM; CC50 [4]: 0.159 µM
12 | N=C(N)c1ccc2cc(OC(=O)c3ccc(CNC(=O)CCCC(=O)O)o3)ccc2c1 [TO-195] | – | – | – | 0.657 µM | >45 | > 9.59 µM | >6 | > 29.9 µM | > 39.8 µM | – | –
13 | CCOC(=O)[C@@H]1O[C@H]1C(=O)N[C@@H](CC(C)C)C(=O)N1CCN(Cc2ccc(OC)c(OC)c2OC)CC1 [NCO 700] | 0.79 µM | >50.44 | > 39.8 µM | – | – | – | – | – | – | – | Synergy score with remdesivir (δ) ([1]; Table 3): 0.209; EC50 [2, 10]: 0.79 µM; CC50 ([4]; Uninfected HeLa-ACE2 CC50 (μM)): > 39.8 µM
14 | Nc1nc(N)c2nc(CCc3ccc(C(=O)N[C@@H](CCC(=O)O)C(=O)O)cc3)cnc2n1 [10-deazaaminopterin] | – | – | – | – | – | – | – | – | – | – | interaction with remdesivir [1]: synergized; maximal efficacy ([1]; compound alone, over the range of concentrations tested): 40%; maximal efficacy ([1]; with addition of EC2 of remdesivir): ~65%; maximal efficacy ([1]; with addition of EC24 of remdesivir): > 80%
15 | CCCCCCCCCCCCCC(=O)O[C@@H]1[C@@H](C)[C@@]2(O)[C@@H](C=C(CO)C[C@]3(O)C(=O)C(C)=C[C@@H]23)[C@@H]2C(C)(C)[C@]12OC(C)=O [Phorbol 12-myristate 13-acetate] | – | – | – | 0.016 µM | 1384.37 | 0.07 µM | 2.89 | 22.5 µM | 0.201 µM | – | –
16 | COc1ccc2c(c1)[C@]1(CC1c1ccc3c(/C=C/c4ccc(CN5C[C@@H](C)O[C@@H](C)C5)cc4)n[nH]c3c1)C(=O)N2 (stereo partly shown) [CFI-400945] | > 7 µM | <1.02 | 7.18 µM | 3.36 µM | >5.88 | – | – | > 19.8 µM | – | > 7 µM | HeLa-ACE2 SI CC50/CoV-2 EC50 [3]: <1.02; CC50 [4, 15]: 7.18 µM; EC50 [8]: > 0.117 µM
17 | COC(=O)C1=C(C)NC(C)=C(C(=O)OC)C1c1cc([N+](=O)[O-])ccc1OCCCCNC[C@H](O)COc1ccccc1 [YM 161514] | 1.86 µM | 6.08 | 11.3 µM | – | – | – | – | – | – | – | Synergy score with remdesivir (δ) ([1]; Table 1, ZIP model, δ>10 synergy, δ<−10 antagonism, between additive): 0.601; Synergy score with remdesivir (δ) ([1]; Table 3): 0.60; EC50 [2, 10]: 1.86 µM; CC50 ([4]; Uninfected HeLa-ACE2 CC50 (μM)): 11.3 µM; EC50 [8]: > 8.47 µM
18 | CC[C@H]1CN2CCc3cc(OC)c(OC)cc3[C@@H]2C[C@@H]1C[C@H]1NCCc2cc(O)c(OC)cc21 [Cephaeline] | – | – | – | 0.142 µM | 34.84 | – | 12.66 | – | – | 0.017 µM | CC50 at 48 h [7]: 4.96 µM; CC50 [4]: 0.212 µM
19 | COC(=O)[C@@]12OC[C@]34[C@H]([C@@H](O)[C@@H]1O)[C@@]1(C)CC(=O)C(O)=C(C)[C@@H]1C[C@H]3OC(=O)[C@H](OC(=O)/C=C(\C)C(C)C)[C@@H]24 [Bruceantin] | – | – | – | 0.019 µM | 50.22 | 0.006 µM | 20.18 | 0.973 µM | 0.117 µM | – | –
20 | Nc1ncnc2c1ccn2[C@@H]1O[C@H](CO)[C@@H](O)[C@H]1O [TUBERCIDIN] | – | – | – | 0.111 µM | 9.68 | 0.183 µM | 3.04 | 1.07 µM | 0.557 µM | – | –
21 | CCCCC1CCc2cc(O)cc3c(CCN4CCN(c5cc(C)ccn5)CC4)c(C)n1c23 (stereo not shown) [KC 11404] | 2.5 µM | >8.39 | > 20.9 µM | – | – | – | – | – | – | – | Synergy score with remdesivir (δ) ([1]; Table 3): −2.817; EC50 [2, 10]: 2.5 µM; CC50 ([4]; Uninfected HeLa-ACE2 CC50 (μM)): > 20.9 µM
